Laboratory results from the NIST ThermoML archive (doi:10.1016/j.jct.2016.09.005).
Numbers after ± are expanded uncertainties.

Conditions: Brillouin Light Scattering

CC(C)OC(C)C [diisopropyl ether]
Conditions	speed of sound [m/s]
432.85 K, 1000 kPa, Liquid	434.31 ± 6.1
433.18 K, 2500 kPa, Liquid	464.16 ± 6.5
433.27 K, 4000 kPa, Liquid	498.85 ± 7
437.97 K, 5500 kPa, Liquid	515.55 ± 7.4
438.45 K, 8500 kPa, Liquid	566.84 ± 8.1
438.48 K, 10000 kPa, Liquid	599.89 ± 8.5
438.69 K, 7000 kPa, Liquid	537.87 ± 7.6
438.94 K, 2500 kPa, Liquid	440.93 ± 6.2
439.03 K, 4000 kPa, Liquid	475.92 ± 6.7
442.55 K, 7000 kPa, Liquid	521.69 ± 7.4
442.6 K, 4000 kPa, Liquid	461.81 ± 6.5
442.85 K, 8500 kPa, Liquid	551.1 ± 7.9
442.96 K, 10000 kPa, Liquid	583.95 ± 8.3
443.09 K, 5500 kPa, Liquid	494.52 ± 7.1
443.48 K, 2500 kPa, Liquid	424.11 ± 6
447.46 K, 2500 kPa, Liquid	407.02 ± 5.8
447.46 K, 10000 kPa, Liquid	569.2 ± 8.2
447.74 K, 5500 kPa, Liquid	476.22 ± 6.9
448.06 K, 8500 kPa, Liquid	530.98 ± 7.6
448.43 K, 4000 kPa, Liquid	436.29 ± 6.2
448.7 K, 7000 kPa, Liquid	505.01 ± 7.2
453.11 K, 2500 kPa, Liquid	380.57 ± 5.4
453.12 K, 5500 kPa, Liquid	456.86 ± 6.7
453.5 K, 4000 kPa, Liquid	418.12 ± 6
453.57 K, 10000 kPa, Liquid	548.35 ± 7.8
453.75 K, 8500 kPa, Liquid	518.95 ± 7.4
454.24 K, 7000 kPa, Liquid	488.02 ± 7
457.15 K, 2500 kPa, Liquid	366.77 ± 5.2
457.57 K, 10000 kPa, Liquid	539.84 ± 7.7
457.63 K, 8500 kPa, Liquid	503.76 ± 7.2
457.7 K, 7000 kPa, Liquid	475.35 ± 6.8
457.87 K, 4000 kPa, Liquid	397.64 ± 5.7
458.03 K, 5500 kPa, Liquid	440.35 ± 6.5
462.93 K, 4000 kPa, Liquid	377.89 ± 5.4
463.16 K, 7000 kPa, Liquid	457.86 ± 6.7
463.6 K, 8500 kPa, Liquid	488.56 ± 7
463.85 K, 10000 kPa, Liquid	521.08 ± 7.5
463.88 K, 2500 kPa, Liquid	338.04 ± 4.9
464.11 K, 5500 kPa, Liquid	418.4 ± 6.2
467.52 K, 5500 kPa, Liquid	406.91 ± 6.1
467.53 K, 10000 kPa, Liquid	508.72 ± 7.3
467.58 K, 7000 kPa, Liquid	440.63 ± 6.4
467.74 K, 8500 kPa, Liquid	473.19 ± 6.8
468.21 K, 4000 kPa, Liquid	357.71 ± 5.2
472.64 K, 8500 kPa, Liquid	459.74 ± 6.7
472.67 K, 7000 kPa, Liquid	424.62 ± 6.3
472.84 K, 5500 kPa, Liquid	384.97 ± 5.8
472.94 K, 4000 kPa, Liquid	339.72 ± 4.9
473.24 K, 10000 kPa, Liquid	491.15 ± 7.1
505.6 K, 3500 kPa, Fluid (supercritical or subcritical phases)	132.11 ± 4
505.8 K, 4500 kPa, Fluid (supercritical or subcritical phases)	215.46 ± 4.1
506.21 K, 5500 kPa, Fluid (supercritical or subcritical phases)	263.63 ± 5.2
506.39 K, 6500 kPa, Fluid (supercritical or subcritical phases)	301.19 ± 5.3
509.39 K, 3500 kPa, Fluid (supercritical or subcritical phases)	114.34 ± 3.7
509.87 K, 4500 kPa, Fluid (supercritical or subcritical phases)	196.58 ± 3.9
510.29 K, 5500 kPa, Fluid (supercritical or subcritical phases)	244.35 ± 5
510.5 K, 6500 kPa, Fluid (supercritical or subcritical phases)	281.9 ± 5.2
516.22 K, 3500 kPa, Fluid (supercritical or subcritical phases)	102.13 ± 2.8
516.95 K, 6500 kPa, Fluid (supercritical or subcritical phases)	262.61 ± 5.4
517.48 K, 4500 kPa, Fluid (supercritical or subcritical phases)	161.27 ± 3.4
518.73 K, 5500 kPa, Fluid (supercritical or subcritical phases)	206.26 ± 5
519.67 K, 3500 kPa, Fluid (supercritical or subcritical phases)	108 ± 2.3
520.35 K, 4500 kPa, Fluid (supercritical or subcritical phases)	144.87 ± 3
521.7 K, 5500 kPa, Fluid (supercritical or subcritical phases)	199.75 ± 5.1
522.21 K, 6500 kPa, Fluid (supercritical or subcritical phases)	243.32 ± 5.1
526.46 K, 3500 kPa, Fluid (supercritical or subcritical phases)	116.09 ± 1.9
527.21 K, 4500 kPa, Fluid (supercritical or subcritical phases)	126.63 ± 2.4
528.59 K, 5500 kPa, Fluid (supercritical or subcritical phases)	173.63 ± 4.9
529.79 K, 6500 kPa, Fluid (supercritical or subcritical phases)	222.12 ± 5.2
532.59 K, 4500 kPa, Fluid (supercritical or subcritical phases)	114.85 ± 2
533.14 K, 5500 kPa, Fluid (supercritical or subcritical phases)	166.48 ± 4.7
533.59 K, 6500 kPa, Fluid (supercritical or subcritical phases)	210.67 ± 4.8
534.66 K, 4500 kPa, Fluid (supercritical or subcritical phases)	113.71 ± 1.9
535.53 K, 5500 kPa, Fluid (supercritical or subcritical phases)	159.52 ± 4.5
536.07 K, 6500 kPa, Fluid (supercritical or subcritical phases)	205.77 ± 4.8
536.58 K, 3500 kPa, Fluid (supercritical or subcritical phases)	132.72 ± 2.2
540.66 K, 4500 kPa, Fluid (supercritical or subcritical phases)	121.9 ± 2
541.18 K, 5500 kPa, Fluid (supercritical or subcritical phases)	155.19 ± 3.7

speed of sound [m/s]
Conditions	443.46 K	453.54 K	457.54 K	463 K	468.31 K	473.8 K	478.69 K	483.1 K	487.42 K	492.48 K
Gas	140.99 ± 2.5	135.34 ± 2.4	131.58 ± 2.4	125.98 ± 2.3	121.95 ± 2.2	115.5 ± 2.1	108.41 ± 2	103.7 ± 2	98.66 ± 1.9	91.71 ± 1.8
Liquid	384.46 ± 5.4	336.71 ± 4.8	315.85 ± 4.5	290.41 ± 4.1	263.51 ± 3.8	237.38 ± 3.4	210.25 ± 3.1	185.8 ± 2.8	162.27 ± 2.5	135.68 ± 2.1
